Series [1] deals with B. subtilis (ATCC 6051). Description: MIC, Alamar blue assay. The series is classed as cell-based. The following applies: Bacillus subtilis, ATCC6051.
Series [2] has as its system MRSA, S. aureus (ATCC BAA-1762). Description: MIC, Alamar blue assay. The series is classed as cell-based, methicillin-resistant S. aureus. The following applies: Staphylococcus aureus. (Alamar Blue is a resazurin reagent that responds to reducing activity.)
Series [3] concerns M. tuberculosis (H37Rv). Description: MIC, Alamar blue assay. The series is classed as cell-based. The settings on record: Mycobacterium tuberculosis.
Series [4] deals with B. subtilis, MRSA, M. tuberculosis and E. coli. Description: Antibacterial activity and MK4 growth rescue, statements over all bacteria tested. The following applies: for increase in MIC values when complemented with exogenous menaquinone-4: B. subtilis, MRSA, M. tuberculosis. It counts as cell-based.
Series [5] deals with E. coli MenE (ecMenE) (Escherichia coli, UniProt P37353). Description: MenE-MenB coupled assay (enzyme inhibition, catalytic parameters). The settings on record: read-out: E. coli MenE IC50; Table E6.
Description: Measurements were performed in triplicate for each compound.
Analysis of the catalytic efficiency (kcat/KM) of the mutant enzymes compared to wild type MenE was performed using the MenE-MenB coupled assay described above.
For series [6], the system named is E. coli. Description: MIC, Alamar blue assay. The series is classed as cell-based, E. coli (K-12). The settings on record: Escherichia coli; Table E2; ~90% cell death.
A short description of series [7]: physchem.
The test system of series [8] is menaquinone levels in S. aureus ATCC BAA-1762 (MRSA). Description: Menaquinone levels by LC-MS/MS after lipid extraction. The series is classed as cell-based. The settings on record: for decrease in menaquinone-8: MRSA, FIG. 9, two independent experiments. The source says: The 1959 Blight/Dyer lipid extraction protocol was followed. Menaquinone levels were quantified by LC-MS/MS using standard curves generated with MK4 and MK9. A distribution of MKs are present in untreated MRSA with MK8 most abundant.
Standard error shown for two independent experiments. *p≤0.05, **p≤0.01.
To provide direct insight into the mode of action of the MenE inhibitors, we analyzed the effect of OSB-AMS on menaquinone-levels in S. aureus by tandem MS (FIG. 2), as follows. Cultures of S. aureus ATCC BAA-1762 (5 mL in Synthetic Broth medium with 10% glucose) were incubated overnight in a 37° C. shaker in the presence or absence of OSB-AMS (15.6 μg/mL final concentration). The Blight and Dyer (1959) lipid extraction protocol was used to isolate the menaquinone-containing fraction from the cells.^(5) Briefly, 0.75 mL of 1:2 (v/v) CHCl3:MeOH was added to 0.2 mL of culture. The mixture was vortexed thoroughly, and 0.25 mL of CHCl3 was added followed by further vortexing after which 0.25 mL of H2O was added. The mixture was then vortexed and centrifuged at 1000 rpm for 5 minutes at room temperature. The bottom phase was recovered, transferred to a glass vial and 200 μL was analyzed by APCI LC-MS/MS in positive ion mode using a Thermo TSQ Quantum Access (Thermo-Fisher) Triple Quadrupole Mass Spectrometer. Menaquinone levels were quantified using standard established for MK4 and MK9. Samples were introduced into the mass spectrometer by flow injection at 100 μL/min with 2:1 MeOH/CHCL3 as the solvent. Multiple Reaction Monitoring (MRM) was performed at 30 eV. MK4, MK5 and MK6 were quantified using the standard curve for MK4 whereas MK7, MK8, and MK9 were quantified using MK9.

Series [9] deals with wild-type ecMenE (Escherichia coli, UniProt P37353).
Description: The direct binding of inhibitors to MenE was quantified using isothermal titration calorimetry (ITC). Measurements were made with a MicroCal VP-ITC instrument at 25° C. Inhibitor stock solutions (1 mM in NaHPO4 buffer pH 7.4 containing 150 mM NaCl and 1 mM MgCl2) were titrated in 4 μL increments into a 50 μM solution of MenE in pH 7.4 20 mM sodium phosphate buffer containing 150 mM sodium chloride and 1 mM magnesium chloride. The data were fit to a single binding site model with the Origin software package.
In series [10] the target is wild-type E. coli MenE (Escherichia coli, UniProt P37353). Description: Direct fluorescent binding assay (intrinsic tryptophan fluorescence). How it is done:
Difluoroindandiol 109 was titrated into a solution of wild-type E. coli MenE and the change in fluorescence was measured using a Quanta Master fluorimeter at excitation and emission wavelengths of 280 and 332 nm, respectively. Data was analyzed using the Morrison equation.
Instead, to determine the Kd for 109, we used a direct binding assay in which the change in the intrinsic tryptophan fluorescence of ecMenE was monitored (see FIG. 14 for binding isotherm and data). […] The solution was stirred continuously, and fluorescence measurements were taken with a Quanta Master fluorimeter using excitation and emission wavelengths of 280 and 332 nm, respectively. Slit widths were optimized to 4 and 2 nm for excitation and emission, respectively. Data were corrected for the inner filter effect and then fit to the following equation using MATLAB: […]

Setting [11] is: Table E5, with addition of exogenous menaquinone-4 (10 μg/mL), read-out: B. subtilis MIC (in parentheses).
Where [12] appears, read: Table E5, without menaquinone-4, read-out: B. subtilis MIC.
Setting [13] is: Table E5, with addition of exogenous menaquinone-4 (10 μg/mL), read-out: MRSA MIC (in parentheses).
Where [14] appears, read: Table E5, without menaquinone-4, read-out: MRSA MIC.
[15] abbreviates: Table E5, with addition of exogenous menaquinone-4 (10 μg/mL), read-out: M. tuberculosis MIC (in parentheses).
Setting [16] is: Table E5, without menaquinone-4, read-out: M. tuberculosis MIC.
Where [17] appears, read: Table E2, ~90% cell death, read-out: B. subtilis MIC.
[18] abbreviates: Table E2, ~90% cell death, read-out: MRSA MIC.
Setting [19] is: Table E2, ~90% cell death, read-out: M. tuberculosis MIC.

≈ marks a conversion by molar mass, not a printed value. Read-outs that look alike come from different tables or passages of the source.

Sequence of wild-type ecMenE (P37353 whole entry): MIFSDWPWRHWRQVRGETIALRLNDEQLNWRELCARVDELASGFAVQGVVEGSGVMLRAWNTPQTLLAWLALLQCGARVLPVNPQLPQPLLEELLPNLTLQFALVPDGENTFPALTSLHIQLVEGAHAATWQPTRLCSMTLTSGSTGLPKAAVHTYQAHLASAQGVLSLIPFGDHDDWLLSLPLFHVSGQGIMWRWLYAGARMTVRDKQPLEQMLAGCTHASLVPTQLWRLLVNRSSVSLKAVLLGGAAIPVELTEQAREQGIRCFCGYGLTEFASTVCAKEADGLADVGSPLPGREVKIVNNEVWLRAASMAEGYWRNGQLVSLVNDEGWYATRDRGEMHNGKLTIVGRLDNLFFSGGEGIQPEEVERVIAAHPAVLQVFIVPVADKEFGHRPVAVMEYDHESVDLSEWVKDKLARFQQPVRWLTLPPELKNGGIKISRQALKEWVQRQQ
Sequence of E. coli MenE (ecMenE) (P37353 whole entry): as above
Sequence of wild-type E. coli MenE (P37353 whole entry): as above

Regarding `Nc1ncnc2c1ncn2[C@@H]1O[C@H](COS(=O)(=O)NC(=O)CC[C@@]2(O)c3ccccc3[C@H](O)C2(F)F)[C@@H](O)[C@H]1O` [(1R,3S)-2, 5′-O—(N-[3″-((1R,3S)-2′″,2′″-difluoro-1′″,3′″-dihydroxy-1′″-indanyl)propanoyl]sulfamoyl)adenosine], the MIC in [1] (setting [11]) amounted to 31.2 µg/mL (≈ 53.2 µM); in [1] (setting [12]), 15.6 µg/mL (≈ 26.6 µM); in series [2] (setting [13]), 31.2 µg/mL (≈ 53.2 µM); in [2] (setting [14]) it was 15.6 µg/mL (≈ 26.6 µM); in [3] (setting [15]), 62.5 µg/mL (≈ 107 µM); in series [3] (setting [16]) it was 15.6 µg/mL (≈ 26.6 µM). For the same compound, the “increase in MIC values when complemented with exogenous menaquinone-4” value in series [4] is given as 2- to 4 fold. Also, in [5], the IC50 came out at 5000 nM.

On to `Nc1ncnc2c1ncn2[C@@H]1O[C@H](COS(=O)(=O)NC(=O)CC[C@]2(O)c3ccccc3[C@@H](O)C2(F)F)[C@@H](O)[C@H]1O` [(1S,3R)-2, 5′-O—(N-[3″-((1S,3R)-2′″,2′″-difluoro-1′″,3′″-dihydroxy-1′″-indanyl)propanoyl]-sulfamoyl)adenosine], for which the MIC in series [1] (setting [11]) stood at 31.2 µg/mL (≈ 53.2 µM); in series [1] (setting [12]) it was 15.6 µg/mL (≈ 26.6 µM); in series [2] (setting [13]) it was 31.2 µg/mL (≈ 53.2 µM); in series [2] (setting [14]), 31.2 µg/mL (≈ 53.2 µM); in series [3] (setting [15]), 62.5 µg/mL (≈ 107 µM); in [3] (setting [16]), 31.2 µg/mL (≈ 53.2 µM). Also, the “rescue by exogenous menaquinone-4” value in series [4] (cultures complemented with exogenous menaquinone-4) is given as “Some rescue”.

As for `Nc1ncnc2c1ncn2[C@@H]1O[C@H](COS(=O)(=O)NC(=O)CCC(=O)c2ccccc2-c2c(O)c(=O)c2=O)[C@@H](O)[C@H]1O` (stereo in doubt) [Compound 106], the MIC in series [6] is above 500 µg/mL; in series [1] (setting [17]), 250 µg/mL (≈ 415 µM); in series [2] (setting [18]), above 500 µg/mL; in [3] (setting [19]) it was above 500 µg/mL. For the same compound, the “cellular activity against any bacteria tested” value in series [4] is “did not show cellular activity”. This compound came in with a pKa in [7] of 1.3.

Take `Nc1ncnc2c1ncn2[C@@H]1O[C@H](COS(=O)(=O)NC(=O)CCC(=O)c2ccccc2C(=O)O)[C@@H](O)[C@H]1O` [OSB-AMS, o-succinylbenzoate-adenenosinemonosulfamate, reference compound]: the MIC in series [6] is above 500 µg/mL; in series [1] (setting [17]), 62.5 µg/mL (≈ 114 µM); in series [2] (setting [18]), 31.2 µg/mL (≈ 56.8 µM); in series [3] (setting [19]), 125 µg/mL (≈ 227 µM). For the same compound, the “decrease in menaquinone-8” value in series [8] is 2.5 fold. For the same compound, the “decrease in the levels of the menaquinones” value in series [8] (OSB-AMS 15.6 μg/mL, overnight, 37° C.) was 3-5 fold. In series [7], this compound registered a pKa of 4. This compound also yielded a Kd in series [9] of 44 ± 11 nM. The ΔG in series [9] (ITC, 25° C., pH 7.4) was -10.0 kcal/mol. Further, in [9] (ITC, 25° C., pH 7.4), the ΔH is -2.0 ± 0.1 kcal/mol.

With `Nc1ncnc2c1ncn2[C@@H]1O[C@H](COS(=O)(=O)NC(=O)CCC2(O)c3ccccc3C(O)C2(F)F)[C@@H](O)[C@H]1O` (mixture of isomers) [Compound 2], the MIC in series [1] (setting [11]) was found to be 62.5 µg/mL; in [1] (setting [12]), 15.6 µg/mL; in [2] (setting [13]), 62.5 µg/mL; in [2] (setting [14]), 15.6 µg/mL; in [3] (setting [15]), 62.5 µg/mL; in series [3] (setting [16]) it was 15.6 µg/mL. Further, in series [4], the “increase in MIC values when complemented with exogenous menaquinone-4” value is recorded as “four-fold increase”. In addition, the “decrease in menaquinone-8” value in [8] is 31%.

Turning to `Nc1ncnc2c1ncn2[C@@H]1O[C@H](COS(=O)(=O)NC(=O)CCC2(O)c3ccccc3C(O)C2(F)F)[C@@H](O)[C@H]1O` (mixture of isomers) [Compound 109], the MIC in series [6] was above 500 µg/mL; in series [1] (setting [17]), 31.2 µg/mL (≈ 53.3 µM); in series [2] (setting [18]), 15.6 µg/mL (≈ 26.6 µM); in series [3] (setting [19]) it was 15.6 µg/mL (≈ 26.6 µM). The same compound came in with a Kd in [10] of 120 ± 23 nM. In series [7], this compound had a pKa of 11.5.

The term MIC denotes the lowest concentration that inhibits growth of the organism. As a reminder, the IC50 is the concentration at which inhibition is half-maximal. Usually pKa stands for the pH at which an ionisable group is half protonated. By Kd is commonly meant the equilibrium constant for the complex coming apart. Lower therefore signals higher affinity.
